Source: paper PMC7738880, “Identification of novel CD44v6-binding peptides that block CD44v6 and deliver a pro-apoptotic peptide to tumors to inhibit tumor growth and metastasis in mice” (Theranostics, 2021)
Residues, ends and D or L forms follow the SMILES beside them.

Experiments:
MDA-MB231-luc cells = test: MDA-MB231-luc experimental lung metastasis model; type: in vivo
Protocol: A mouse model of lung metastasis of breast cancer was prepared by injecting 1 × 10^6 MDA-MB231-luc cells into 6-week-old female BALB/c nude mice via tail vein. To monitor the localization of the tumor cells in the lungs, the mice were injected intraperitoneally with D-luciferin at a dose of 150 mg/kg body weight and subjected to a whole-body bioluminescence imaging using IVIS imaging system (Perkin Elmer) after a 10-min resting period. Mice (n = 10 per group) were randomly assigned to groups based on the luminescence intensity. At 1 h after tumor cell injection, tumor-bearing mice received intravenous injections of CD44v6-binding peptides through the tail vein (14.2 mg/kg body weight, thrice weekly for 3 weeks) alone or in combination with orally administered crizotinib in 5% dimethyl sulfoxide (DMSO) (25 mg/kg of body weight, twice weekly for 3 weeks) as previously described, [29]. Metastatic tumor growth after treatments was monitored by measuring the total photon flux (number of photons/second) in the whole body using the IVIS imaging system. The body weights of mice and tumor ulceration were monitored throughout the treatment period. At the end of the treatment period, half of the mice (n = 5 per group) were used for the collection of blood, sacrificed, the lungs were harvested and weighed, and the numbers of metastatic tumor nodules in the lungs were counted. The remaining mice (n = 5 per group) were maintained until death to determine the survival rates. For the analysis of hematological parameters, 1 mL of blood was collected from each mouse and separated into 500 µL aliquots used to prepare serum and plasma. Serum was obtained by centrifuging clotted blood at 4 °C twice, followed by filtration (pore size: 0.22 µm). Plasma was obtained by centrifuging ethylenediaminetetraacetic acid-treated samples. Hematological parameters and liver and kidney function markers were measured by DGMIF (Daegu, Korea).

MDA-MB231 cells [1] = test: Annexin V/propidium iodide apoptosis assay, MDA-MB231; type: cell-based, human; conditions: 2 h, versus combined NLN or NEW and KLA
Protocol: (§1) For apoptosis assays, cells were plated in 6-well plates at a density of 5 × 10^5 cells per well overnight and treated with different concentrations of peptides (0, 2, 4, 8, 16, 32, 64, 128, and 256 µM) at 37 °C for 2 h. Cells were harvested, washed, and mixed with annexin V binding buffer. Then, 1 μg/mL of propidium iodide and 5 μL of APC annexin V reagent (ThermoFisher Scientific, Waltham, MA) were added to stain necrotic and apoptotic cells. Percent of annexin V-positive and propidium iodide-negative cells were measured using flow cytometry.

4T1 cells = test: Annexin V/propidium iodide apoptosis assay, 4T1; type: cell-based, mouse; conditions: 2 h, versus combined NLN or NEW and KLA
Protocol: as §1

Panc-1 cells [2] = test: Annexin V/propidium iodide apoptosis assay, Panc-1; type: cell-based, human; conditions: 2 h, versus combined NLN or NEW and KLA
Protocol: as §1

MDA-MB231 cells [3] = test: Intracellular trafficking with MitoTracker and LysoTracker; type: cell-based, human; conditions: peptide 10 µM, 37 °C, 2-4 h, confocal
Protocol: To examine the intracellular trafficking of peptides cells were incubated with peptides (10 µM) at 37 °C for 2 h and stained with MitoTracker Deep Red FM (ThermoFisher Scientific), a mitochondrial marker. In another set of experiments, cells were incubated with peptides at 37 °C for 4 h and stained with LysoTracker Red DND-99 (ThermoFisher Scientific), a late endosome/lysosome marker. After staining, cells were fixed with 4% paraformaldehyde for 10 min at room temperature, stained with DAPI, and then mounted using ProLong gold anti-fade reagent (ThermoFisher Scientific). Subcellular fluorescence was detected using a confocal microscope (Zeiss).

4T1-luc cells = test: 4T1-luc orthotopic spontaneous metastasis model; type: in vivo; conditions: 10 mg/kg i.v. thrice weekly for 3 weeks; for hematologic parameters and liver and kidney functional marker levels: n = 5/group; for luminescence signals and total photon flux from the whole body: n = 10 per group; for luminescence signals and total photon flux from the whole body / TUNEL-positive apoptotic cells in primary tumor tissues / number of metastatic tumor nodules / percent survival / tumor volume / tumor weight: more efficiently than combined NLN or NEW and KLA
Protocol: (§2) 4T1-luc cells (1 × 10^6 cells) were orthotopically inoculated into the mammary fat pads in 6-week-old female BALB/c mice. Panc-1 cells (1 × 10^6 cells) were subcutaneously inoculated into lower right flank in 6-week-old female BALB/c nude mice To monitor 4T1-luc tumor growth, mice were intraperitoneally injected with D-luciferin (150 mg/kg body weight), incubated for 10 min, and subjected to a whole-body bioluminescence imaging using the IVIS imaging system (Perkin Elmer). At two weeks after the inoculation, mice were randomly sorted into groups based on the luminescence intensity (4T1-luc) or tumor size (Panc-1). CD44v6-binding peptides were administered intravenously to 4T1 tumor-bearing mice (n = 6 per group) through the tail vein (14.2 mg/kg body weight, thrice weekly for three weeks) alone or in combination with crizotinib. Crizotinib in 5% DMSO was administered orally (12.5 and 25 mg/kg body weight, twice weekly for three weeks). CD44v6-targeted pro-apoptotic peptides or CD44v6-binding peptides and pro-apoptotic peptide in combination were intravenously administered to 4T1 or Panc-1 tumor-bearing mice (n = 10 per group) through the tail vein (10 mg/kg body weight, thrice weekly for 3 weeks). Primary tumor growth was monitored by measuring tumor volumes using a caliper and total photon flux in the whole body using the IVIS imaging system. The body weights and tumor ulceration were monitored throughout the treatment period. At the end of the treatments, half of the mice were used for the collection of blood, sacrificed, and the primary tumor weights and numbers of metastatic tumor nodules in the isolated lungs were determined. The remaining mice were maintained until death to determine the survival rates. The hematological parameters and liver and kidney function markers in plasma and serum samples were analyzed as described above. The normal ranges of hematological parameters of the BALB/c mouse and BALB/c nude mouse were obtained from Charles River Laboratories website (www.criver.com).

Panc-1 cells [4] = test: Panc-1 subcutaneous spontaneous metastasis model; type: in vivo, BALB/c nude mouse; conditions: 10 mg/kg i.v. thrice weekly for 3 weeks; more efficiently than combined NLN or NEW and KLA
Protocol: as §2

[5] = biological target: CD44v6, endogenous in MDA-MB231 human breast tumor cells (human (endogenous in MDA-MB231)); test: saturation binding to cells; saturation binding assays on MDA-MB231, 4T1, Panc-1 and MCF7 cells (Figure S2A); method and label of the peptide not given
Sequence of CD44v6, endogenous in MDA-MB231 human breast tumor cells (human (endogenous in MDA-MB231)) (P16070 21-742): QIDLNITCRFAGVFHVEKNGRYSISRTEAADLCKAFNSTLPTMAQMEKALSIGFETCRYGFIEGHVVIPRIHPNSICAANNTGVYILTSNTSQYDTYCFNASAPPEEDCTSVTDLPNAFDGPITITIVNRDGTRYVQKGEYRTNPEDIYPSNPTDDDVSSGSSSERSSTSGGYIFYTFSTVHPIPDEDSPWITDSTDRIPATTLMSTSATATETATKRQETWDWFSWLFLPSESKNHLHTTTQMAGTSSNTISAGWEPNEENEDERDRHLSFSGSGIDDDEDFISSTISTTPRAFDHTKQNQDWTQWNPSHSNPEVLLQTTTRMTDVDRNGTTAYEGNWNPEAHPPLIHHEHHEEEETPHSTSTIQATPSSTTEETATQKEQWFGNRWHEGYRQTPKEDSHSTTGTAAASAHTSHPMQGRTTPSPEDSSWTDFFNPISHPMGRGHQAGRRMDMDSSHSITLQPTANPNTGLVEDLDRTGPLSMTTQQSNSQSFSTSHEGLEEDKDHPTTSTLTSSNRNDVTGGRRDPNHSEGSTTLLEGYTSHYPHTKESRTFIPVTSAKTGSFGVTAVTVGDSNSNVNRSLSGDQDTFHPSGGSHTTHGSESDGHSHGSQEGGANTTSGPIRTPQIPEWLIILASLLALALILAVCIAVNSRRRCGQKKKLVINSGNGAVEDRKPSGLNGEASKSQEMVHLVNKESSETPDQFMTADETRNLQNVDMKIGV

| Molecule | growth of MDA-MB231-luc metastases in the lungs (MDA-MB231-luc cells; crizotinib 25 mg/kg oral twice weekly for 3 weeks) | survival rate (MDA-MB231-luc cells; peptide 14.2 mg/kg i.v. thrice weekly or crizotinib 25 mg/kg oral twice weekly, 3 weeks, single treatment) | induction of apoptosis, MDA-MB231 (MDA-MB231 cells [1]) | induction of apoptosis, 4T1 (4T1 cells) | induction of apoptosis, Panc-1 (Panc-1 cells [2]) | intracellular localization (MDA-MB231 cells [3]) | hematologic parameters and liver and kidney functional marker levels (4T1-luc cells) | luminescence signals and total photon flux from the whole body (4T1-luc cells) | TUNEL-positive apoptotic cells in primary tumor tissues (4T1-luc cells) | number of metastatic tumor nodules (4T1-luc cells) | percent survival (4T1-luc cells) | tumor volume (4T1-luc cells) | tumor weight (4T1-luc cells) | percent survival and TUNEL-positive apoptotic cells in tumor tissues (Panc-1 cells [4]) | tumor growth and metastasis to the lungs (Panc-1 cells [4]) | Kd [5] |
| --- | --- | --- | --- | --- | --- | --- | --- | --- | --- | --- | --- | --- | --- | --- | --- | --- |
| C[C@@H](Oc1cc(-c2cnn(C3CCNCC3)c2)cnc1N)c1c(Cl)ccc(F)c1Cl [crizotinib, reference compound] | inhibited | increased the survival rate | – | – | – | – | – | – | – | – | – | – | – | – | – | – |
| CC(C)C[C@H](NC(=O)[C@H](CCCCN)NC(=O)CNC(=O)CNC(=O)CNC(=O)[C@H](CS)NC(=O)[C@H](CO)NC(=O)[C@H](CCCCN)NC(=O)[C@H](CC(C)C)NC(=O)[C@H](CCC(N)=O)NC(=O)[C@H](Cc1c[nH]c2ccccc12)NC(=O)[C@H](CCC(=O)O)NC(=O)[C@H](CC(N)=O)NC(=O)[C@@H](N)CS)C(=O)N[C@@H](C)C(=O)N[C@@H](CCCCN)C(=O)N[C@@H](CC(C)C)C(=O)N[C@@H](C)C(=O)N[C@@H](CCCCN)C(=O)N[C@@H](CCCCN)C(=O)N[C@@H](CC(C)C)C(=O)N[C@@H](C)C(=O)N[C@@H](CCCCN)C(=O)N[C@@H](CC(C)C)C(=O)N[C@@H](C)C(=O)N[C@@H](CCCCN)C(=O)O [NEW-KLA] (H-CNEWQLKSCGGGKLAKLAKKLAKLAK-OH) | – | – | more efficiently than the combined treatment | more efficiently than the combined treatment | more efficiently than the combined treatment | closely co-localized with mitochondria and lysosomes | within or close to the normal ranges | decreased | increasing | reduced | increasing | reduced | reduced | increased | inhibited | – |
| CC[C@H](C)[C@H](NC(=O)[C@@H](NC(=O)[C@H](CC(N)=O)NC(=O)[C@H](CC(C)C)NC(=O)[C@H](CC(N)=O)NC(=O)[C@@H](N)CS)[C@@H](C)O)C(=O)N[C@@H](CC(=O)O)C(=O)N[C@H](C(=O)N[C@@H](CS)C(=O)NCC(=O)NCC(=O)NCC(=O)N[C@@H](CCCCN)C(=O)N[C@@H](CC(C)C)C(=O)N[C@@H](C)C(=O)N[C@@H](CCCCN)C(=O)N[C@@H](CC(C)C)C(=O)N[C@@H](C)C(=O)N[C@@H](CCCCN)C(=O)N[C@@H](CCCCN)C(=O)N[C@@H](CC(C)C)C(=O)N[C@@H](C)C(=O)N[C@@H](CCCCN)C(=O)N[C@@H](CC(C)C)C(=O)N[C@@H](C)C(=O)N[C@@H](CCCCN)C(=O)O)[C@@H](C)O [NLN-KLA] (H-CNLNTIDTCGGGKLAKLAKKLAKLAK-OH) | – | – | more efficiently than the combined treatment | more efficiently than the combined treatment | more efficiently than the combined treatment | closely co-localized with mitochondria and lysosomes | within or close to the normal ranges | decreased | increasing | reduced | increasing | reduced | reduced | increased | inhibited | – |
| CNLNTIDTC [… peptide (NLN), label not stated] | – | – | – | – | – | – | – | – | – | – | – | – | – | – | – | 12 µM |
| CNEWQLKSC [… peptide (NEW), label not stated] | – | – | – | – | – | – | – | – | – | – | – | – | – | – | – | 18 µM |
